Test results as given in ChEMBL document CHEMBL5131518, “Discovery of 2-Phenylquinolines with Broad-Spectrum Anti-coronavirus Activity” (ACS Med Chem Lett, 2022).

What was measured:
in vitro [1] = details: monkey, Vero E6 cells
Description: Selectivity index, ratio of CC50 for cytotoxicity against African green monkey Vero E6 cells to EC50 for antiviral activity against SARS-CoV-2 infected in eGFP expressing African green monkey Vero E6 cells

in vitro [2] = details: human, HEL 299 cells
Description: Selectivity index, ratio of CC50 for cytotoxicity against HEL 299 cells to EC50 for antiviral activity against HCoV-229E infected in HEL 299 cells

[3] = target: Replicase polyprotein 1ab (Severe acute respiratory syndrome coronavirus 2) (UniProt P0DTD1); assay: Inhibition of SARS-CoV-2 nsp13 ATPase-associated activity using ATP as substrate at highest concentration of compound incubated for 30 mins by Biomol Green Reagent based assay
[4] = Inhibition of SARS-CoV-2 RdRp expressed in Escherichia coli BL21 DE3 co-expressing […] incubated for 1 hr by fluorescent based assay; set-up: species or system Severe acute respiratory syndrome coronavirus 2
[5] = system: Severe acute respiratory syndrome coronavirus 2; assay: Inhibition of SARS-CoV-2 RdRp expressed in Escherichia coli BL21 DE3 co-expressing […] at 30 uM incubated for 1 hr by fluorescent bases assay

| Compound | selectivity ratio (in vitro [1]) | selectivity ratio (in vitro [2]) | inhibition [3] [%] | IC50 [4] [µM] | inhibition [5] [%] |
| --- | --- | --- | --- | --- | --- |
| CCCOc1ccc(-c2cc(OCCN3CCCC3)c3c(OC)ccc(OC)c3n2)cc1 | 7.9 | 13.4 | – | – | – |
| C=CCn1c(S)nnc1CSc1ccccc1[N+](=O)[O-] | – | – | 90 | – | – |
| CCCOc1ccc(-c2cc(OCCN(CC)CC)c3c(OC)ccc(OC)c3n2)cc1 | 5.3 | 13.8 | – | – | – |
| CCCOc1ccc(-c2cc(OCCN3CCN(Cc4ccccc4)CC3)c3cccc(OC)c3n2)cc1 | 2.8 | – | – | – | – |
| CCCOc1ccc(-c2cc(OCCN3CCCCC3)c3c(OC)ccc(OC)c3n2)cc1 | 8.8 | 10.2 | – | > 30 | 100 |
| CCCOc1ccc(-c2cc(OCCN3CCCC3)c3cc(OC)cc(OC)c3n2)cc1 | > 16.9 | > 2.5 | – | > 30 | 100 |
| CCCOc1ccc(-c2cc(OCCN(CC)CC)c3cc(OC)c(OC)cc3n2)cc1 | 13.8 | 5.2 | – | – | – |
| CCCOc1ccc(-c2cc(OCCN3CCCC3)c3cc(OC)c(OC)cc3n2)cc1 | 1.3 | – | – | – | – |
| CCCOc1ccc(-c2cc(OCCN3CCc4cc(OC)c(OC)cc4C3)c3c(OC)cc(OC)cc3n2)cc1 | – | – | – | > 30 | – |
| CCCOc1ccc(-c2cc(OCCN3CCCCC3)c3cc(OC)c(OC)cc3n2)cc1 | 4.3 | 52.4 | – | – | – |
| CCCOc1ccc(-c2cc(OCCN(CC)CC)c3cc(OC)cc(OC)c3n2)cc1 | > 7.7 | 12.4 | – | – | – |
| CCCOc1ccc(-c2cc(OCCN(CC)CC)c3c(OC)c(OC)c(OC)cc3n2)cc1 | 2.9 | – | – | – | – |
| CCCOc1ccc(-c2cc(OCCN(CC)CC)c3cccc(OC)c3n2)cc1 | > 11 | 8.2 | – | – | – |
| CCCOc1ccc(-c2cc(OCCN3CCN(Cc4ccccc4)CC3)c3ccccc3n2)cc1 | > 8.4 | > 1.6 | – | – | – |
| CCCOc1ccc(-c2cc(OCCN3CCNCC3)c3cccc(OC)c3n2)cc1 | 4.3 | 25.6 | – | – | – |
| CCCOc1ccc(-c2cc(OCCN3CCN(Cc4ccccc4)CC3)c3c(OC)cc(OC)cc3n2)cc1 | > 12.7 | 16.4 | – | > 30 | 100 |
